Literature values as cited in patent US7199111B2, “Aqueous ifosfamide compositions for parenteral administration and a process for their preparations” (Bharat Serums & Vaccines Ltd., priority 2002, dated 2007).

What was measured:
[1] = Ifosfamide in water
[2] = system: mouse; settings: intravenous administration, reported

O=P1(NCCCl)OCCCN1CCCl (centres unmarked) [Ifosfamide, 3-(2-chloroethyl)-2-[(2-chloroethyl)amino]-tetrahydro-2H-1,3,2-oxazaphosphorin-2-oxide]
water solubility [1]: about 100 mg/ml | LD50 [2]: 338 mg/kg body weight
